The results in this text go back to patent publication US9630958B2, “Triazine compounds” (Sphaera Pharma Pte. Ltd., priority 2012, dated 2017).

Bounds are passed on as bounds.

Assay [1] has as its target T1, PI3 Kinase alpha (p110 alpha/p85 alpha) (Homo sapiens, UniProt P42336).
T1 construct: purchased Invitrogen
In words: PI3K TR-FRET assay (Transcreener ADP2). The note with it: for inhibition at 1 µM: 1 uM compound, read-out: PI3K % Inhib@1 uM; for IC50: PI3K alpha, 1 μM ATP, 50 μM PIP2. The class given is biochemical. The protocol:
Enzymatic activity of PI3K alpha was measured using Time resolved Fluorescence resonance energy transfer (TR-FRET) assay. This assay utilizes ADP detection as a means to screen inhibitor potency of compounds. The Transcreener ADP2 TR-FRET Red Assay is a competitive immunoassay for ADP with a far-red, TR-FRET readout and it has been used for this purpose. The assay can be used for any enzyme class that produces ADP (Kinases, ATPases). It consists of ADP HiLyte647 Tracer, ADP^2 Antibody-Tb conjugate (800 nM), stop & detect buffer, 5 mM ATP, 5 mM ADP. The ADP HiLyte647 Tracer is bound to an ADP^2 Antibody-Tb conjugate. The excitation of the terbium complex in the UV range results in energy transfer to the tracer and emission at a higher wavelength after a time delay ADP produced by the target enzyme displaces the tracer which causes decrease in TR-FRET.
The reaction buffer used for the assay was 50 mM HEPES, pH 7.4.3 mM MgCl2, 0.05% CHAPS, 50 mM NaCl, 2 mM DTT, 1 mM EGTA. PI3 Kinase alpha (p110 alpha/p85 alpha) and PIP2 Substrate (diC8,) were procured from Invitrogen and Echelon respectively.
Kinase reactions were performed in 10 μl volume in Corning white 384 well plates. […] Reaction was initiated by the addition of substrate (PIP2) and ATP at final conc. of 50 μM and 1 μM ATP in the reaction respectively. Kinase reactions were allowed to proceed for 1 hour at room temperature before a 10 μL preparation of Transcreener ADP detection mix was added. Plate was incubated at room temperature for 1 hr. ADP-ATP standard curves were also prepared.
(§1) FRET signal was read in Envision Multilabel Reader with the following filters:
Excitation-330 nm and Emission 615 nm (donor) and 665 nm (acceptor). TR FRET Ratio (Fluorescence 665 nm/Fluorescence 615 nm) was converted to amount of product formed using the standard curve generated. Percentage inhibition was calculated and plotted against the concentration of inhibitor and data was fit to Non Linear Regression curve fit (sigmoidal dose response curve with variable slope-four parameters) using Graph pad prism 5 and IC50 was calculated for the compound.

A further assay concerns the target T2, Recombinant mTOR (FRAP1) (Homo sapiens, UniProt P42345).
T2 construct: purchased Invitrogen
As to the kind of experiment: mTOR in vitro kinase assay (TR-FRET, phosphorylation of GFP-4E-BP1). The class given is biochemical. As to conditions: for IC50: 8 μM ATP, 400 nM GFP-4E-BP1; for inhibition at 1 µM: 1 uM compound, read-out: mTOR % Inhib@1 uM. As for the experimental part:
Compounds were evaluated for mTOR activity using an in vitro kinase assay.
mTOR activity is measured in vitro by determining the level of phosphorylation of the protein substrate 4EBP-1. The phosphorylation of GFP-4E-BP1 at threonine residue is recognized by Ab Tb-Anti-p4EBP1, which results in time resolved fluorescence energy transfer (TR-FRET) between GFP and Terbium in the Ab-Protein complex.
Recombinant mTOR (FRAP1), Kinase reaction buffer, GFP-4E-BP1 and LanthaScreen Tb-anti-4E-BP1 (pThr46), TR FRET dilution buffer, Kinase Quench Buffer were obtained from Invitrogen.
Kinase reactions were performed in 10 μl volume in Corning white 384 well plates. […] The reaction was initiated by the addition of substrate (GFP-4E-BP1) and ATP at a final conc. of 400 nM and 8 μM ATP in the reaction respectively. The kinase reaction was allowed to proceed for 1 hour at room temperature before a 10 μL preparation of kinase quench buffer and Tb-labeled Antibody in TR-FRET dilution buffer was added. The final concentration of the antibody in the assay well is 2 nM and the final concentration of EDTA is 10 mM. The plate was incubated at room temperature for 1 h.
as §1
Excitation-330 nm and Emission 486 nm (donor) and 520 nm (acceptor).
TR FRET Ratio (Fluorescence 520 nm/Fluorescence 486 nm) was plotted against the concentration of inhibitor and data was fit to Non Linear Regression curve fit (sigmoidal dose response curve with variable slope-four parameters) using Graph Pad Prism 5.

T1 sequence (P42336 whole entry): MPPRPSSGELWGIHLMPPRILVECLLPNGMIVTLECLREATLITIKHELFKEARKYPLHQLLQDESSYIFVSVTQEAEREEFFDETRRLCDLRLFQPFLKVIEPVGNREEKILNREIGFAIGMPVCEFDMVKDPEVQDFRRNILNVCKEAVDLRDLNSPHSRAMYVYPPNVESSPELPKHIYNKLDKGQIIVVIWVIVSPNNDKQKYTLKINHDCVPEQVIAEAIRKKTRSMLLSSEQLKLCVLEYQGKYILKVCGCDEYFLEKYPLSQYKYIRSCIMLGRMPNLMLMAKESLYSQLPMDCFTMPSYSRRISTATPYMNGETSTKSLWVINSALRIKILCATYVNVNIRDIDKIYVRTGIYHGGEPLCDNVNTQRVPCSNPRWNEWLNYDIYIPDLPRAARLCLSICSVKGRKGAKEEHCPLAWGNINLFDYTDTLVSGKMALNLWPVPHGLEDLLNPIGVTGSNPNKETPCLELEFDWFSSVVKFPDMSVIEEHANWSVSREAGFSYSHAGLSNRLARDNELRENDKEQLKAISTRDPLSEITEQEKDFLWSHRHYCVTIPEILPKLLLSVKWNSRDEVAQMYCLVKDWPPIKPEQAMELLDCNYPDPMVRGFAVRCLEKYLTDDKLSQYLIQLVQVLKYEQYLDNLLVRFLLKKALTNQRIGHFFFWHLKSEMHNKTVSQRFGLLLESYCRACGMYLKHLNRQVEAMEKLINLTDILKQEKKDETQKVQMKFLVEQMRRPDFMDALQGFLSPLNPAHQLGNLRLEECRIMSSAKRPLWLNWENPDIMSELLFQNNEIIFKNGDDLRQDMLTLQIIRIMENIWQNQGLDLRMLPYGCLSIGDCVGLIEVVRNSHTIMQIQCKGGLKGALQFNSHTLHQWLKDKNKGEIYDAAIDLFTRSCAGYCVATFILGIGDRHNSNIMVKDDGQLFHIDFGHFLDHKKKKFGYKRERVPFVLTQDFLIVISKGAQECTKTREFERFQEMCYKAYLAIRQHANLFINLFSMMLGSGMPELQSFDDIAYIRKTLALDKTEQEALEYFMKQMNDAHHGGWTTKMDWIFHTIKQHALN
T1 sequence (P27986 whole entry partner): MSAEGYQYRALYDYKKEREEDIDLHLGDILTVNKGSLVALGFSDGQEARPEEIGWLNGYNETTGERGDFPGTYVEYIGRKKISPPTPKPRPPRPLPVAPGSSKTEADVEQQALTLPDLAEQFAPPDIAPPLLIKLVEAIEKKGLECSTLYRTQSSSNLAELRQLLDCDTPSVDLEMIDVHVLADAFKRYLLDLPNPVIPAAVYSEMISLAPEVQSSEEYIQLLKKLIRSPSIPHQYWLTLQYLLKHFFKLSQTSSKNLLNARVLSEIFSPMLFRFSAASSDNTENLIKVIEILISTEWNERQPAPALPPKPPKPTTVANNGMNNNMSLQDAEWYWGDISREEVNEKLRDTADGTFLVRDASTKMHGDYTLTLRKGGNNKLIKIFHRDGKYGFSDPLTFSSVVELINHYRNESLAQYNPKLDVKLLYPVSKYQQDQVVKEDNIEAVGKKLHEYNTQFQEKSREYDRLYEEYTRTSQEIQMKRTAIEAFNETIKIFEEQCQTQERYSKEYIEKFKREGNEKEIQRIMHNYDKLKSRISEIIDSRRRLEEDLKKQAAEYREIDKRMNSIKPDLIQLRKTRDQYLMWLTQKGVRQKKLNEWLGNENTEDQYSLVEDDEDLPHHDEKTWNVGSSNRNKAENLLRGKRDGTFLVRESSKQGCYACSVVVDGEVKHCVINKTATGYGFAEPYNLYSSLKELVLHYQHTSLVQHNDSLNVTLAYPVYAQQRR
T2 sequence (P42345 1360-2549 limits assumed): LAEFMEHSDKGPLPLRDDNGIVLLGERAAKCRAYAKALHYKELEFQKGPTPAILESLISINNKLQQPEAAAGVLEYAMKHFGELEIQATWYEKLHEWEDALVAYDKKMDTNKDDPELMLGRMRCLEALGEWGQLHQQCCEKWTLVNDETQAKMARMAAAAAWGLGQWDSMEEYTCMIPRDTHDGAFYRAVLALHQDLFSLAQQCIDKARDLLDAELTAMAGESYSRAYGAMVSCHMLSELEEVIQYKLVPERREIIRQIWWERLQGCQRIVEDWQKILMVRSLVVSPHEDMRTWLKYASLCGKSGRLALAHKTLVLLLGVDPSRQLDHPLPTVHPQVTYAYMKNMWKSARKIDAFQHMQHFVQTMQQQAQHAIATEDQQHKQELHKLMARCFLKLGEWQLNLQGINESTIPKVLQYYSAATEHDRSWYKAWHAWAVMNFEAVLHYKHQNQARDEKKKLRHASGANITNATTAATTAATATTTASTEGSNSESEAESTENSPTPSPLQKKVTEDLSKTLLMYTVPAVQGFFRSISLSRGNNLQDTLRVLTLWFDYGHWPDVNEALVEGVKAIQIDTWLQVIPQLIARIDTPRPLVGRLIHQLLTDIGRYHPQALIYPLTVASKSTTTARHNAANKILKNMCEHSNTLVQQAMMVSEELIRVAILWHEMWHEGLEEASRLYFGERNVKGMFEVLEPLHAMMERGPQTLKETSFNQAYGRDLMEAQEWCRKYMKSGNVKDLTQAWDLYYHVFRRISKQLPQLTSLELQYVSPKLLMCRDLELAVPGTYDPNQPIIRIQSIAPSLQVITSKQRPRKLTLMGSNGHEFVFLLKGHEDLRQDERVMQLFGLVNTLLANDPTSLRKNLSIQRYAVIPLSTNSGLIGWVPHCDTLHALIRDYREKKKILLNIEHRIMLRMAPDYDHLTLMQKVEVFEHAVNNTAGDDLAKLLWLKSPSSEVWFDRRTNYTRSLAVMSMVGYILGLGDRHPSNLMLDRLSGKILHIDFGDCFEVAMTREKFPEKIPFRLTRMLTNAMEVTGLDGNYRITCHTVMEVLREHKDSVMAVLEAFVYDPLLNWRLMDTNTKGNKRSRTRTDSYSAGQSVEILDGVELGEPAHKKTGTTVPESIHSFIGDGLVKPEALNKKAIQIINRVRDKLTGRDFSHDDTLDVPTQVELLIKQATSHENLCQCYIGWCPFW

`CN(C)C(=O)c1ccc(Oc2nc(-c3cnc(N)s3)nc(N3CC4CCC(C3)O4)n2)c(F)c1` [Compound 10154, 4-(4-(8-oxa-3-aza-bicyclo[3.2.1]octan-3-yl)-6-(2-aminothiazol-5-yl)-1,3,5-triazin-2-yloxy)-3-fluoro-N,N-dimethylbenzamide]: the inhibition at 1 µM in assay [1] was less than 50%. For the same compound, the IC50 in assay [1] is greater than 1 µM; on Recombinant mTOR (FRAP1), less than 1 µM.

Turning to `C[C@H]1COCCN1c1nc(Oc2ccc(C(=O)N(C)C)cc2)nc(-c2cnc(N)cc2C(F)(F)F)n1` [Compound 10066, (S)-4-((4-(6-Amino-4-(trifluoromethyl)pyridine-3-yl)-6-(3-methylmorpholino)-1,3,5-triazin-2-yl)oxy)-N,N-dimethylbenzamide], the IC50 (in assay [1]; at Recombinant mTOR (FRAP1)) was less than 1 µM throughout.

`CN(C)C(=O)c1ccc(Oc2nc(-c3cnc(N)s3)nc(N3CCO[C@@H]4CCC[C@@H]43)n2)c(F)c1` [Compound 10206]: the IC50 at Recombinant mTOR (FRAP1) is less than 1 µM.

`CN(C)C(=O)c1cccc(Nc2nc(-c3cnc(N)s3)nc(N3CCOCC3)n2)c1` [Compound 10200, 3-((4-(2-aminothiazol-5-yl)-6-morpholino-1,3,5-triazin-2-yl)amino)-N,N-dimethylbenzamide]: the IC50 in assay [1] is less than 1 µM. Further, the inhibition at 1 µM on Recombinant mTOR (FRAP1) is less than 50%. Turning to `CNC(=O)Nc1ncc(-c2nc(NC)nc(N3CCOC[C@@H]3C)n2)s1` [Compound 10135, 1-methyl-3-(5-(4-(methylamino)-6-((S)-3-methylmorpholino)-1,3,5-triazin-2-yl)thiazol-2-yl)urea], the inhibition at 1 µM (in assay [1]; at Recombinant mTOR (FRAP1)) was less than 50% each time. Turning to `CN(C)C(=O)c1ccc(Oc2nc(-c3cnc(N)s3)nc(N3CCOCC3(C)C)n2)cc1` [Compound 10128, 4-(4-(2-aminothiazol-5-yl)-6-(3,3-dimethylmorpholino)-1,3,5-triazin-2-yloxy)-N,N-dimethylbenzamide], in assay [1], the inhibition at 1 µM is greater than 50% and the IC50 was less than 1 µM. For the same compound, at Recombinant mTOR (FRAP1), the inhibition at 1 µM was greater than 50% and the IC50 is less than 1 µM. As to `C[C@H]1CN(c2nc(Oc3ccc(C(=O)N(C)C)cc3F)nc(-c3ccc4[nH]ncc4c3)n2)[C@@H](C)CO1` [Compound 10063, 4-((4-((25,3S)-2,5-dimethylmorpholino)-6-(1H-indazol-5-yl)-1,3,5-triazin-2-yl)oxy)-3-fluoro-N,N-dimethylbenzamide], in assay [1], the inhibition at 1 µM is less than 50%. Further, on Recombinant mTOR (FRAP1), the IC50 is less than 1 µM. Turning to `CC1COCCN1c1nc(Oc2ccc(C(=O)N(C)C)cc2)nc(-c2cnc(N)s2)n1` (centres unmarked) [Compound 10006, 4-(4-(2-aminothiazol-5-yl)-6-(3-methylmorpholino)-1,3,5-triazin-2-yloxy)-N,N-dimethylbenzamide], in assay [1], the inhibition at 1 µM was greater than 50% and the 50% inhibitory concentration (IC50) is greater than 1 µM. Besides, the inhibition at 1 µM on Recombinant mTOR (FRAP1) was less than 50%. Compound `CC(C(=O)N(C)C)c1ccc(Oc2nc(-c3cnc(N)s3)nc(N3CCOCC3)n2)cc1` (centres unmarked) [Compound 10115, 2-(4-(4-(2-aminothiazol-5-yl)-6-morpholino-1,3,5-triazin-2-yloxy)phenyl)-N,N-dimethylpropanamide] displayed a half-maximal inhibitory concentration (IC50) in assay [1] of less than 1 µM. For the same compound, at Recombinant mTOR (FRAP1), the inhibition at 1 µM was greater than 50%. For the compound `CC1COCCN1c1nc(Oc2ccc(C(=O)N(C)C)cc2F)nc(-c2ccc(N)nc2)n1` (centres unmarked) [Compound 10207, 4-((4-(6-aminopyridin-3-yl)-6-(3-methylmorpholino)-1,3,5-triazin-2-yl)oxy)-3-fluoro-N,N-dimethylbenzamide], on Recombinant mTOR (FRAP1), the IC50 was less than 1 µM.

`CN(C)C(=O)N1CCC(COc2nc(-c3ccc(N)nc3)nc(N3CCOCC3)n2)C1` (centres unmarked) [Compound 10187, 3-(((4-(6-aminopyridin-3-yl)-6-morpholino-1,3,5-triazin-2-yl)oxy)methyl)-N,N-dimethylpyrrolidine-1-carboxamide] registered an IC50 in assay [1] of less than 1 µM.

In assay [1], `Nc1ccc(-c2nc(SCc3ccccc3)nc(N3CCOCC3)n2)cn1` [Compound 10175, 5-(4-(benzylthio)-6-morpholino-1,3,5-triazin-2-yl)pyridine-2-amine] came in with an IC50 of less than 1 µM.

Compound `CN(C)C(=O)c1cccc(Oc2nc(-c3ccc(N)nc3)nc(N3CCOCC3)n2)c1` [Compound 10183, 3-((4-(6-aminopyridin-3-yl)-6-morpholino-1,3,5-triazin-2-yl)oxy)-N,N-dimethylbenzamide] had an IC50 in assay [1] of less than 1 µM. `C[C@@H]1CN(c2nc(Oc3ccc(C(=O)N(C)C)cc3F)nc(-c3cnc(N)s3)n2)C[C@@H](C)O1` [Compound 10070, 4-((4-2-Aminothiazol-5-yl)-6-((2R,6R)-2,6-dimethylmorpholino)-1,3,5-triazin-2-yl)oxy-3-fluoro-N,N-dimethylbenzamide]: the IC50 at Recombinant mTOR (FRAP1) is less than 1 µM. In assay [1], `CN(C)C(=O)N1CCC(Oc2nc(-c3ccc(N)nc3)nc(N3CCOCC3)n2)C1` (centres unmarked) [Compound 10186, 3-((4-(6-aminopyridin-3-yl)-6-morpholino-1,3,5-triazin-2-yl)oxy)-N,N-dimethylpyrrolidine-1-carboxamide] registered an IC50 of less than 1 µM. As to `C[C@@H]1CN(c2nc(Oc3ccc(C(=O)N(C)C)cc3F)nc(-c3cnc(N)s3)n2)[C@H](C)CO1` [Compound 10205, 4-((4-(2-aminothiazol-5-yl)-6-((2R,5R)-2,5-dimethylmorpholino)-1,3,5-triazin-2-yl)oxy)-3-fluoro-N,N-dimethylbenzamide], the IC50 on Recombinant mTOR (FRAP1) was less than 1 µM. As to `Nc1ncc(-c2nc(N3CCOCC3)nc(N3CCNC(=O)CC3)n2)s1` [Compound 10198, 1-(4-(2-aminothiazol-5-yl)-6-morpholino-1,3,5-triazin-2-yl)-1,4-diazepan-5-one], the IC50 in assay [1] is less than 1 µM. `CN(C)C(=O)c1ccc(Oc2nc(-c3ccc(NN)nc3)nc(N3CCOCC3)n2)cc1` [Compound 10177, 4-((4-(6-hydrazinylpyridin-3-yl)-6-morpholino-1,3,5-triazin-2-yl)oxy)-N,N-dimethylbenzamide]: the IC50 in assay [1] is less than 1 µM. Still for that read-out and setting: in the case of `CN(C)C(=O)c1ccc(Oc2nc(-c3cnc(N)s3)nc(N3CCOCC34CCCC4)n2)c(F)c1` [Compound 10083, 4-((4-(2-Aminothiazol-5-yl)-6-(9-oxa-6-azaspiro[4.5]decan-6-yl)-1,3,5-triazin-2-yl)oxy)-3-fluoro-N,N-dimethylbenzamide] it was less than 1 µM. Turning to `C[C@H]1COCCN1c1nc(Oc2ccc(C(=O)N(C)C)cc2)nc(-c2cnc(NC(=O)c3cccnc3)s2)n1` [Compound 10094, (S)-N-(5-(4-(4-(dimethylcarbamoyl)phenoxy)-6-(3-methylmorpholino)-1,3,5-triazin-2-yl)thiazol-2-yl)nicotinamide], the inhibition at 1 µM in assay [1] was less than 50%. `C[C@H]1CN(c2nc(Oc3ccc(C(=O)N(C)C)cc3F)nc(-c3cnc(N)s3)n2)[C@@H](C)[C@@H](C)O1` [Compound 10088, 4-((4-(2-Aminothiazol-5-yl)-6-((2R,3S,6S)-2,3,6-trimethylmorpholino)-1,3,5-triazin-2-yl)-oxy)-3-fluoro-N,N-dimethylbenzamide]: on Recombinant mTOR (FRAP1), the inhibition at 1 µM was less than 50%.

`C[C@H]1CN(c2nc(Oc3ccc(C(=O)N(C)C)cc3F)nc(-c3cnc(N)s3)n2)C[C@H](C)O1` [Compound 10084, 4-((4-2-Aminothiazol-5-yl)-6-((2S,6S)-2,6-dimethylmorpholino)-1,3,5-triazin-2-yl)oxy-3-fluoro-N,N-dimethylbenzamide]: the IC50 on Recombinant mTOR (FRAP1) is less than 1 µM. Regarding `CN(C)C(=O)Cc1cccc(Oc2nc(-c3ccc(N)nc3)nc(N3CCOCC3)n2)c1` [Compound 10184, 2-(3-((4-(6-aminopyridin-3-yl)-6-morpholino-1,3,5-triazin-2-yl)oxy)phenyl)-N,N-dimethylacetamide], in assay [1], the IC50 was less than 1 µM.
